Measurements reported in patent US20080221063A1, “Heterocyclic Sulfonamide Derivatives As Inhibitors Of Factor Xa” (ASTRAZENECA AB, priority 2005, published 2008).
pIC50: −log10 of the molar value.

Molecular target: T1, human FXa (Homo sapiens, UniProt P00742)
T1 construct: FXa solution (human FXa, Haematologic Technologies Inc., Essec Junction, Vt., USA); purchased Haematologic Technologies Inc
Assay: Measurement of Factor Xa Inhibition (chromogenic substrate method)
Format: biochemical
Settings: chromogenic substrate S-2765, 40 min incubation at 37° C., pH 7.4
Description: a) Measurement of Factor Xa Inhibition
The FXa inhibitor potency was measured with a chromogenic substrate method, in a Plato 3300 robotic microplate processor (Rosys AG, CH-8634 Hombrechtikon, Switzerland), using 96-well, half-volume microtiter plates (Costar, Cambridge, Mass., USA; Cat No 3690). Stock solutions of test substance in DMSO (72 μL), 10 mmol/L, alternatively 1 mmol/L were diluted serially 1:3 (24+48 μL) with DMSO to obtain ten different concentrations, which were analyzed as samples in the assay, together with controls and blanks. As control sample melagatran was analysed. The dilutions of each test substance were analyzed consecutively, row-wise on the microtiter plate, with wasp cycles between substances to avoid cross-contamination. […] The final assay concentrations were: test substance 0.0068-133, respectively 0.00068-13.3 μmol/L, S-2765 0.40 mmol/L (KM=0.25 mmol/L) and FXa […]. The linear absorbance increase at 405 n=during 40 min incubation at 37° C. was used for calculation of percent inhibition for the test samples, as compared to references without inhibitor and/or enzyme. […]

T1 sequence (P00742 235-488 limits assumed): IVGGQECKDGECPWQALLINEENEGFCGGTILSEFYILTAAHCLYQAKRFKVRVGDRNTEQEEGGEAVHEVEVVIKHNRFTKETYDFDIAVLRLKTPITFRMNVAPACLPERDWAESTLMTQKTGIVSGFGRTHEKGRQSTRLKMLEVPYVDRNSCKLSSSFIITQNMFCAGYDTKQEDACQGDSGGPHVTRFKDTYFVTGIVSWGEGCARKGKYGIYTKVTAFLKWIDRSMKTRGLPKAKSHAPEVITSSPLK
T1 sequence (P00742 41-179 partner limits assumed): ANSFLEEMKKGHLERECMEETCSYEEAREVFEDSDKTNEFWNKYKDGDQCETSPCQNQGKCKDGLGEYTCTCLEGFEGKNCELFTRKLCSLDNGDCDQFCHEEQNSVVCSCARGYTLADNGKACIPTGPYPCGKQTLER

Row | pIC50 | SMILES
1 | 8.30 | CCNC(=O)C1CN(S(=O)(=O)c2ccc3c(Cl)c[nH]c3c2)CC(=O)N1CC1CCN(c2ccc(=O)n(C)n2)CC1 (centres unmarked) [Example 4, 4-(3-Chloro-1H-indole-6-sulfonyl)-1-[1-(1-methyl-6-oxo-1,6-dihydro-pyridazin-3-yl)-piperidin-4-ylmethyl]-6-oxo-piperazine-2-carboxylic acid ethylamide]
2 | 8.64 | CC(C)OC(=O)C1CN(S(=O)(=O)c2ccc3c(Cl)c[nH]c3c2)CC(=O)N1CC1CCN(c2ccc(=O)n(C)n2)CC1 (centres unmarked) [Example 13, 4-(3-Chloro-1H-indole-6-sulfonyl)-1-[1-(1-methyl-6-oxo-1,6-dihydro-pyridazin-3-yl)-piperidin-4-ylmethyl]-6-oxo-piperazine-2-carboxylic acid isopropyl ester]
